Experimental data as given in US10940139B2, “Compounds that interact with the Ras superfamily for the treatment of cancers, inflammatory diseases, rasopathies, and fibrotic disease” (Shy Therapeutics LLC, priority 2017, dated 2021).

Key:
[1] = tested on: TNFα production in RAW 264.7 macrophage cell line; test: Mouse TNF alpha quantification assay (LPS-stimulated macrophages, ELISA); assay type: cell-based; details: RAW264.7, RAW 264.7 murine leukemia virus transformed macrophage cell lines, LPS stimulation, read-out: TNF-α % Inhibition at 30 μM
[2] = tested on: IL6 production in RAW 264.7 macrophage cell line; test: Mouse IL6 quantification assay (LPS-stimulated macrophages, ELISA); assay type: cell-based; details: RAW264.7, RAW 264.7 murine leukemia virus transformed macrophage cell lines, LPS stimulation, read-out: IL-6 % Inhibition at 30 μM

Cc1sc2c(N)nc(-c3ccccn3)nc2c1Br [drawing 2285]
inhibition at 30 µM [1]: 0%
inhibition at 30 µM [2]: 1 to 25%

COC(=O)c1csc2nc(-c3ccccn3)nc(N)c12 [drawing 2287]
inhibition at 30 µM [1]: 0%
inhibition at 30 µM [2]: 51 to 75%

Oc1nc(-c2ccccn2)nc2c(-c3ccccn3)csc12 [drawing 2288]
inhibition at 30 µM [1]: 76 to 100%
inhibition at 30 µM [2]: 76 to 100%

COc1nccc(CCNC(=O)c2csc3nc(-c4ccccn4)nc(N4CCOCC4)c23)n1 [drawing 2289]
inhibition at 30 µM [1]: 0%
inhibition at 30 µM [2]: 26 to 50%

O=C(NCCc1ccnc(O)n1)c1csc2nc(-c3ccccn3)nc(N3CCOCC3)c12 [drawing 2290]
inhibition at 30 µM [1]: 0%
inhibition at 30 µM [2]: 1 to 25%

CN1CCN(c2nc(-c3ccccn3)nc3scc(C(=O)NCCc4cnc(O)nc4)c23)CC1 [drawing 2291]
inhibition at 30 µM [1]: 26 to 50%
inhibition at 30 µM [2]: 26 to 50%

Oc1nc(-c2ccccn2)nc2c(-c3cc(F)cc(F)c3)csc12 [drawing 2292]
inhibition at 30 µM [1]: 51 to 75%
inhibition at 30 µM [2]: 76 to 100%

CN(C)Cc1ccc(F)c(-c2csc3c(O)nc(-c4ccccn4)nc23)c1 [drawing 2293]
inhibition at 30 µM [1]: 51 to 75%
inhibition at 30 µM [2]: 76 to 100%

Oc1nc(-c2ccccn2)nc2c(-c3ccc4c(c3)CCCO4)csc12 [drawing 2294]
inhibition at 30 µM [1]: 0%
inhibition at 30 µM [2]: 1 to 25%

CCn1nc(C)cc1-c1csc2c(O)nc(-c3ccccn3)nc12 [drawing 2295]
inhibition at 30 µM [1]: 51 to 75%
inhibition at 30 µM [2]: 76 to 100%

Oc1nc(-c2ccccn2)nc2c(-c3ccnn3-c3ccccn3)csc12 [drawing 2296]
inhibition at 30 µM [1]: 0%
inhibition at 30 µM [2]: 51 to 75%

Cc1sc2c(O)nc(-c3ccccn3)nc2c1-c1ccccc1 [drawing 2297]
inhibition at 30 µM [1]: 76 to 100%
inhibition at 30 µM [2]: 76 to 100%

Nc1nc(-c2ccccn2)nc2scc(C(=O)O)c12 [drawing 2298]
inhibition at 30 µM [1]: 1 to 25%
inhibition at 30 µM [2]: 1 to 25%

COC(=O)c1cc2nc(-c3ccccn3)nc(O)c2s1 [drawing 2299]
inhibition at 30 µM [1]: 51 to 75%
inhibition at 30 µM [2]: 76 to 100%

Oc1nc(-c2ccccn2)nc2c(-c3cnc4ccccc4c3)csc12 [drawing 2300]
inhibition at 30 µM [1]: 1 to 25%
inhibition at 30 µM [2]: 76 to 100%

Oc1nc(-c2ccccn2)nc2c(-c3ccc(Cl)c(Cl)c3)csc12 [drawing 2301]
inhibition at 30 µM [1]: 0%
inhibition at 30 µM [2]: 26 to 50%

Oc1nc(-c2ccccn2)nc2c(-c3cncc(F)c3)csc12 [drawing 2302]
inhibition at 30 µM [1]: 0%
inhibition at 30 µM [2]: 51 to 75%

Oc1nc(-c2ccccn2)nc2c(-c3cc(C(F)(F)F)ccc3F)csc12 [drawing 2303]
inhibition at 30 µM [1]: 1 to 25%
inhibition at 30 µM [2]: 76 to 100%

Oc1nc(-c2ccccn2)nc2c(-c3cncc(C(F)(F)F)c3)csc12 [drawing 2304]
inhibition at 30 µM [1]: 0%
inhibition at 30 µM [2]: 1 to 25%

Cc1cncc(-c2csc3c(O)nc(-c4ccccn4)nc23)c1 [drawing 2305]
inhibition at 30 µM [1]: 1 to 25%
inhibition at 30 µM [2]: 76 to 100%

Cc1sc2c(O)nc(-c3ccccn3)nc2c1-c1cccnc1 [drawing 2306]
inhibition at 30 µM [1]: 0%
inhibition at 30 µM [2]: 51 to 75%

COc1cnc(-c2ccccn2)nc1O [drawing 2307]
inhibition at 30 µM [1]: 1 to 25%
inhibition at 30 µM [2]: 76 to 100%

COc1cnc(C2CCCN2)nc1O (stereo not drawn) [drawing 2308]
inhibition at 30 µM [1]: 1 to 25%
inhibition at 30 µM [2]: 1 to 25%

COc1nc(-c2ccccn2)nc2c(C3CCCC3)csc12 [drawing 2309]
inhibition at 30 µM [1]: 0%
inhibition at 30 µM [2]: 0%

CCC(C)c1csc2c(OC)nc(-c3ccccn3)nc12 (stereo not drawn) [drawing 2310]
inhibition at 30 µM [1]: 1 to 25%
inhibition at 30 µM [2]: 26 to 50%

COC(=O)c1c(C)sc2c(O)nc(-c3ccccn3)nc12 [drawing 2311]
inhibition at 30 µM [1]: 1 to 25%
inhibition at 30 µM [2]: 76 to 100%

Cc1c(Br)sc2c(O)nc(-c3ccccn3)nc12 [drawing 2312]
inhibition at 30 µM [1]: 51 to 75%
inhibition at 30 µM [2]: 76 to 100%

Cc1c(C(=O)O)sc2c(O)nc(-c3ccccn3)nc12 [drawing 2313]
inhibition at 30 µM [1]: 76 to 100%
inhibition at 30 µM [2]: 76 to 100%

COC(=O)c1sc2c(O)nc(-c3ccccn3)nc2c1C [drawing 2314]
inhibition at 30 µM [1]: 0%
inhibition at 30 µM [2]: 1 to 25%

Oc1nc(-c2ccccn2)nc2c3c(sc12)CNC3 [drawing 2315]
inhibition at 30 µM [1]: 1 to 25%
inhibition at 30 µM [2]: 0%

Oc1nc(-c2ccccn2)nc2c(C3CCC3)csc12 [drawing 2316]
inhibition at 30 µM [1]: 76 to 100%
inhibition at 30 µM [2]: 76 to 100%

COc1nc(-c2ccccn2)nc2c(C3CCCCC3)csc12 [drawing 2317]
inhibition at 30 µM [1]: 1 to 25%
inhibition at 30 µM [2]: 26 to 50%

COc1nc(-c2ccccn2)nc2c(C3CCC3)csc12 [drawing 2318]
inhibition at 30 µM [1]: 1 to 25%
inhibition at 30 µM [2]: 1 to 25%

CC(C)Oc1cnc(-c2ccccn2)nc1O [drawing 2319]
inhibition at 30 µM [1]: 1 to 25%
inhibition at 30 µM [2]: 76 to 100%

Oc1cccc(-c2csc3c(O)nc(-c4ccccn4)nc23)n1 [drawing 2320]
inhibition at 30 µM [1]: 0%
inhibition at 30 µM [2]: 51 to 75%

O=C(NCCc1ccncn1)c1csc2nc(-c3ccccn3)nc(N3CCOCC3)c12 [drawing 2321]
inhibition at 30 µM [1]: 0%
inhibition at 30 µM [2]: 1 to 25%

CC(C)c1nn(C)cc1-c1csc2c(O)nc(-c3ccccn3)nc12 [drawing 2322]
inhibition at 30 µM [1]: 1 to 25%
inhibition at 30 µM [2]: 76 to 100%

CN(C)CCOc1cccc(-c2csc3c(O)nc(-c4ccccn4)nc23)c1 [drawing 2323]
inhibition at 30 µM [1]: 76 to 100%
inhibition at 30 µM [2]: 76 to 100%

Oc1nc(-c2ccccn2)nc2c(-c3cc(CN4CCCC4)ccc3F)csc12 [drawing 2324]
inhibition at 30 µM [1]: 0%
inhibition at 30 µM [2]: 51 to 75%

N#Cc1cccc(-c2csc3c(O)nc(-c4ccccn4)nc23)c1 [drawing 2325]
inhibition at 30 µM [1]: 0%
inhibition at 30 µM [2]: 26 to 50%

Oc1nc(-c2ccccn2)nc2c(-c3cncnc3)csc12 [drawing 2326]
inhibition at 30 µM [1]: 0%
inhibition at 30 µM [2]: 26 to 50%

Cc1c(-c2csc3c(O)nc(-c4ccccn4)nc23)cnn1C [drawing 2327]
inhibition at 30 µM [1]: 51 to 75%
inhibition at 30 µM [2]: 76 to 100%

Cc1nn(C(C)C)cc1-c1csc2c(O)nc(-c3ccccn3)nc12 [drawing 2328]
inhibition at 30 µM [1]: 26 to 50%
inhibition at 30 µM [2]: 76 to 100%

Oc1nc(-c2ccccn2)nc2c(-c3cncc(C(F)F)c3)csc12 [drawing 2329]
inhibition at 30 µM [1]: 0%
inhibition at 30 µM [2]: 26 to 50%

COc1ccc(CCC(=O)Nc2nc(-c3ccccn3)nc3sccc23)cn1 [drawing 2330]
inhibition at 30 µM [1]: 51 to 75%
inhibition at 30 µM [2]: 76 to 100%

Cc1sc2c(O)nc(-c3ccccn3)nc2c1-c1ccncc1 [drawing 2331]
inhibition at 30 µM [1]: 0%
inhibition at 30 µM [2]: 26 to 50%

Cc1sc2c(O)nc(-c3ccccn3)nc2c1C(=O)N1CCN(c2ccccc2)CC1 [drawing 2332]
inhibition at 30 µM [1]: 1 to 25%
inhibition at 30 µM [2]: 26 to 50%

Cc1sc2c(O)nc(-c3ccccn3)nc2c1C(=O)N1CCN(c2ccccc2)CC1C (stereo not drawn) [drawing 2333]
inhibition at 30 µM [1]: 0%
inhibition at 30 µM [2]: 1 to 25%

Cc1sc2c(O)nc(-c3ccccn3)nc2c1C(=O)N1CCN(Cc2cccc(O)c2)CC1 [drawing 2334]
inhibition at 30 µM [1]: 0%
inhibition at 30 µM [2]: 26 to 50%

COC(=O)c1c(C)sc2c(N)nc(-c3ccccn3)nc12 [drawing 2335]
inhibition at 30 µM [1]: 1 to 25%
inhibition at 30 µM [2]: 76 to 100%

Oc1nc(-c2ccccn2)nc2c(C3CCCCC3)csc12 [drawing 2336]
inhibition at 30 µM [1]: 0%
inhibition at 30 µM [2]: 0%

Oc1nc(-c2ccccn2)nc2c(C3CCCC3)csc12 [drawing 2337]
inhibition at 30 µM [1]: 26 to 50%
inhibition at 30 µM [2]: 51 to 75%

CC(C)Cc1csc2c(O)nc(-c3ccccn3)nc12 [drawing 2338]
inhibition at 30 µM [1]: 76 to 100%
inhibition at 30 µM [2]: 76 to 100%

COc1cnc(-c2cn(C)cn2)nc1O [drawing 2339]
inhibition at 30 µM [1]: 0%
inhibition at 30 µM [2]: 26 to 50%

COc1cnc(-c2nccn2C)nc1O [drawing 2340]
inhibition at 30 µM [1]: 0%
inhibition at 30 µM [2]: 1 to 25%

Nc1cccc(-c2csc3c(O)nc(-c4ccccn4)nc23)n1 [drawing 2341]
inhibition at 30 µM [1]: 26 to 50%
inhibition at 30 µM [2]: 76 to 100%

Cc1sc2c(O)nc(-c3ccccn3)nc2c1-c1ccccc1Cl [drawing 2342]
inhibition at 30 µM [1]: 51 to 75%
inhibition at 30 µM [2]: 51 to 75%

COc1cnc(-c2cnc[nH]2)nc1O [drawing 2343]
inhibition at 30 µM [1]: 0%
inhibition at 30 µM [2]: 1 to 25%

COc1cnc(CNC(=O)c2csc3nc(-c4ccccn4)nc(N)c23)[nH]c1=O [drawing 2344]
inhibition at 30 µM [1]: 1 to 25%
inhibition at 30 µM [2]: 1 to 25%

Oc1nc(-c2ccccn2)nc2c(C3CC3)csc12 [drawing 2345]
inhibition at 30 µM [1]: 1 to 25%
inhibition at 30 µM [2]: 1 to 25%

Oc1nc(-c2ccccn2)nc2c(CC3CNC3)csc12 [drawing 2346]
inhibition at 30 µM [1]: 1 to 25%
inhibition at 30 µM [2]: 76 to 100%

COc1cnc(CNC(=O)c2csc3c(O)nc(-c4ccccn4)nc23)[nH]c1=O [drawing 2347]
inhibition at 30 µM [1]: 0%
inhibition at 30 µM [2]: 1 to 25%

COc1cnc(CNC(=O)c2cc3nc(-c4ccccn4)nc(O)c3s2)[nH]c1=O [drawing 2348]
inhibition at 30 µM [1]: 1 to 25%
inhibition at 30 µM [2]: 0%

Cc1sc2c(O)nc(-c3ccccn3)nc2c1Br [drawing 2349]
inhibition at 30 µM [1]: 0%
inhibition at 30 µM [2]: 26 to 50%

COc1cnc(CNC(=O)c2c(C)sc3c(O)nc(-c4ccccn4)nc23)[nH]c1=O [drawing 2350]
inhibition at 30 µM [1]: 1 to 25%
inhibition at 30 µM [2]: 0%

COc1cnc(CNC(=O)c2sc3c(O)nc(-c4ccccn4)nc3c2C)[nH]c1=O [drawing 2351]
inhibition at 30 µM [1]: 1 to 25%
inhibition at 30 µM [2]: 1 to 25%

O=C(c1csc2c(O)nc(-c3ccccn3)nc12)N1CCNC(c2ccc(Cl)cc2)C1 (stereo not drawn) [drawing 2352]
inhibition at 30 µM [1]: 1 to 25%
inhibition at 30 µM [2]: 76 to 100%

Oc1nc(-c2ccccn2)nc2c(CC3CCNC3)csc12 (stereo not drawn) [drawing 2353]
inhibition at 30 µM [1]: 1 to 25%
inhibition at 30 µM [2]: 51 to 75%

O=c1[nH]c(-c2ccccn2)nc2c([C@@H]3O[C@H](CO)[C@@H](O)[C@H]3O)csc12 [drawing 2354]
inhibition at 30 µM [1]: 26 to 50%
inhibition at 30 µM [2]: 1 to 25%
